Data on one compound can be found in ChEMBL document CHEMBL4330132, “5-Keto-3-cyano-2,4-diaminothiophenes as selective maternal embryonic leucine zipper kinase inhibitors” (Bioorg Med Chem Lett, 2019).

Assay [1] addresses Tyrosine-protein kinase ZAP-70 (Homo sapiens) (UniProt P43403). Put plainly: Binding affinity to wild-type human partial length ZAP70 (D20 to G299 residues) expressed in mammalian expression system assessed as residual binding level at 1 uM by Kinomescan method relative to control.
Assay [2] deals with Ankyrin repeat and protein kinase domain-containing protein 1 (Homo sapiens) (UniProt Q8NFD2). Put plainly: Binding affinity to wild-type human partial length ANKK1 (M1 to A305 residues) expressed in mammalian expression system assessed as residual binding level at 1 uM by Kinomescan method relative to control.
For assay [3], the target named is Tyrosine-protein kinase Yes (Homo sapiens) (UniProt P07947). Nature of the assay: Binding affinity to wild-type human partial length YES (T257 to L543 residues) expressed in bacterial expression system assessed as residual binding level at 1 uM by Kinomescan method relative to control.
Assay [4] concerns Hepatocyte growth factor receptor (Homo sapiens), P08581 [M1250T]. Put plainly: Binding affinity to human partial length MET M1250T mutant (D1010 to S1367 residues) expressed in bacterial expression system assessed as residual binding level at 1 uM by Kinomescan method relative to control.
Assay [5] relates to Phosphatidylinositol 4,5-bisphosphate 3-kinase catalytic subunit alpha isoform (Homo sapiens), P42336 [Q546K]. Nature of the assay: Binding affinity to human partial length PIK3CA Q546K mutant (R108 to N1068 residues) expressed in mammalian expression system assessed as residual binding level at 1 uM by Kinomescan method relative to control.
Assay [6] addresses Serine/threonine-protein kinase Nek4 (Homo sapiens) (UniProt P51957). Put plainly: Binding affinity to wild-type human full length NEK4 (M1 to F841 residues) expressed in mammalian expression system assessed as residual binding level at 1 uM by Kinomescan method relative to control.
Assay [7] concerns Epidermal growth factor receptor (Homo sapiens), P00533 [T790M]. Put plainly: Binding affinity to human partial length EGFR T790M mutant (R669 to G1022 residues) expressed in mammalian expression system assessed as residual binding level at 1 uM by Kinomescan method relative to control.
The target of assay [8] is Cyclin-dependent kinase 14 (Homo sapiens) (UniProt O94921). Nature of the assay: Binding affinity to wild-type human full length PFTK1 (M1 to H451 residues) expressed in bacterial expression system assessed as residual binding level at 1 uM by Kinomescan method relative to control.
Assay [9] concerns the target Dual specificity mitogen-activated protein kinase kinase 2 (Homo sapiens) (UniProt P36507). Put plainly: Binding affinity to wild-type human full length MEK2 (M1 to V400 residues) expressed in mammalian expression system assessed as residual binding level at 1 uM by Kinomescan method relative to control.
For assay [10], the system named is Tyrosine-protein kinase ABL1 (Homo sapiens), P00519 [F317L]. Nature of the assay: Binding affinity to human non-phosphorylated ABL1 F317L mutant (S229 to K512 residues) expressed in mammalian expression system assessed as residual binding level at 1 uM by Kinomescan method relative to control.
For assay [11], the target named is Serine/threonine-protein kinase MAK (Homo sapiens) (UniProt P20794). Put plainly: Binding affinity to wild-type human partial length MAK (M1 to P314 residues) expressed in bacterial expression system assessed as residual binding level at 1 uM by Kinomescan method relative to control.
The target in assay [12] is Death-associated protein kinase 2 (Homo sapiens) (UniProt Q9UIK4). Nature of the assay: Binding affinity to wild-type human full length DAPK2 (M1 to S370 residues) expressed in bacterial expression system assessed as residual binding level at 1 uM by Kinomescan method relative to control.
Assay [13] addresses Membrane-associated tyrosine- and threonine-specific cdc2-inhibitory kinase (Homo sapiens) (UniProt Q99640). Put plainly: Binding affinity to wild-type human partial length PKMYT1 (A88 to G366 residues) expressed in bacterial expression system assessed as residual binding level at 1 uM by Kinomescan method relative to control.
Assay [14] concerns the target Tyrosine-protein kinase FRK (Homo sapiens) (UniProt P42685). Put plainly: Binding affinity to wild-type human partial length FRK (A215 to F503 residues) expressed in bacterial expression system assessed as residual binding level at 1 uM by Kinomescan method relative to control.
In assay [15] the target is Wee1-like protein kinase 2 (Homo sapiens) (UniProt P0C1S8). Put plainly: Binding affinity to wild-type human partial length WEE2 (M204 to K492 residues) expressed in bacterial expression system assessed as residual binding level at 1 uM by Kinomescan method relative to control.
Assay [16] concerns the target MAP kinase-activated protein kinase 5 (Homo sapiens) (UniProt Q8IW41). Put plainly: Binding affinity to wild-type human partial length MAPKAPK5 (M1 to D322 residues) expressed in mammalian expression system assessed as residual binding level at 1 uM by Kinomescan method relative to control.
The target in assay [17] is Serine/threonine-protein kinase Sgk3 (Homo sapiens) (UniProt Q96BR1). Nature of the assay: Binding affinity to wild-type human partial length SGK3 (M119 to L496 residues) expressed in mammalian expression system assessed as residual binding level at 1 uM by Kinomescan method relative to control.
Assay [18] deals with AP2-associated protein kinase 1 (Homo sapiens) (UniProt Q2M2I8). Nature of the assay: Binding affinity to human wild-type AAK1 (G25 to L333 residues) expressed in bacterial expression system assessed as residual binding level at 1 uM by Kinomescan method relative to control.
Assay [19] concerns the target Rhodopsin kinase GRK7 (Homo sapiens) (UniProt Q8WTQ7). Put plainly: Binding affinity to wild-type human full length GRK7 (M1 to L553 residues) expressed in mammalian expression system assessed as residual binding level at 1 uM by Kinomescan method relative to control.
Assay [20] concerns the target Mitogen-activated protein kinase kinase kinase 9 (Homo sapiens) (UniProt P80192). Nature of the assay: Binding affinity to wild-type human partial length MLK1 (V88 to W426 residues) expressed in bacterial expression system assessed as residual binding level at 1 uM by Kinomescan method relative to control.
In assay [21] the test system is Proto-oncogene tyrosine-protein kinase receptor Ret (Homo sapiens), P07949 [V804L]. Put plainly: Binding affinity to human partial length RET V804L mutant (E713 to D1014 residues) expressed in bacterial expression system assessed as residual binding level at 1 uM by Kinomescan method relative to control.
For assay [22], the target named is Phosphatidylinositol 4-kinase beta (Homo sapiens) (UniProt Q9UBF8). Put plainly: Binding affinity to wild-type human full length PIK4CB (M1 to M828 residues) expressed in mammalian expression system assessed as residual binding level at 1 uM by Kinomescan method relative to control.
The target of assay [23] is Myosin light chain kinase (Homo sapiens) (UniProt Q32MK0). Nature of the assay: Binding affinity to wild-type human partial length MLCK (D488 to K800 residues) expressed in bacterial expression system assessed as residual binding level at 1 uM by Kinomescan method relative to control.
The target of assay [24] is Serine/threonine-protein kinase 17B (Homo sapiens) (UniProt O94768). Nature of the assay: Binding affinity to wild-type human full length DRAK2 (M1 to C372 residues) expressed in bacterial expression system assessed as residual binding level at 1 uM by Kinomescan method relative to control.

Chain of Serine/threonine-protein kinase Nek4 (Homo sapiens) (P51957 whole entry, looked up, the tested form may be a part): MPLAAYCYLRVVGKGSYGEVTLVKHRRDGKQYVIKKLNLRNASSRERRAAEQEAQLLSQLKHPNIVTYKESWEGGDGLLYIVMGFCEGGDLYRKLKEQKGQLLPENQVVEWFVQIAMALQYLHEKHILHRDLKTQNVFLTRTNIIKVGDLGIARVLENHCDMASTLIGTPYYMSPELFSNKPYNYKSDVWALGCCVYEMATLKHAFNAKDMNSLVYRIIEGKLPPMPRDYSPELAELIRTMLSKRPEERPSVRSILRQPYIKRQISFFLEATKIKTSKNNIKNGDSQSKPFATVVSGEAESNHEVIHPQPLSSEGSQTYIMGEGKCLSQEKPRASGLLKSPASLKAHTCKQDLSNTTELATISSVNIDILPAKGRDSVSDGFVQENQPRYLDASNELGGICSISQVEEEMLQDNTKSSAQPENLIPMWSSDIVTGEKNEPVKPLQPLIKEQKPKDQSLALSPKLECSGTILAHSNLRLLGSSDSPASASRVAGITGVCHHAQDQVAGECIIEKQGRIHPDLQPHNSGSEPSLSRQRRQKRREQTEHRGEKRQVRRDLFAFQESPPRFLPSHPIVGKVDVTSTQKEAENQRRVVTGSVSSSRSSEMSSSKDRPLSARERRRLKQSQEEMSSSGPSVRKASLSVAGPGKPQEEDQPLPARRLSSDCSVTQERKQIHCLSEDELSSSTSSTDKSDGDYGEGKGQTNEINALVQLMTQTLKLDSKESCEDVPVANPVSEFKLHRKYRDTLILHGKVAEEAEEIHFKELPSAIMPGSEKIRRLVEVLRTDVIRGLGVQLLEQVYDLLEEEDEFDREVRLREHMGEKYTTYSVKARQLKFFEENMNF
Chain of Serine/threonine-protein kinase Sgk3 (Homo sapiens) (Q96BR1 whole entry, the tested form may be a part): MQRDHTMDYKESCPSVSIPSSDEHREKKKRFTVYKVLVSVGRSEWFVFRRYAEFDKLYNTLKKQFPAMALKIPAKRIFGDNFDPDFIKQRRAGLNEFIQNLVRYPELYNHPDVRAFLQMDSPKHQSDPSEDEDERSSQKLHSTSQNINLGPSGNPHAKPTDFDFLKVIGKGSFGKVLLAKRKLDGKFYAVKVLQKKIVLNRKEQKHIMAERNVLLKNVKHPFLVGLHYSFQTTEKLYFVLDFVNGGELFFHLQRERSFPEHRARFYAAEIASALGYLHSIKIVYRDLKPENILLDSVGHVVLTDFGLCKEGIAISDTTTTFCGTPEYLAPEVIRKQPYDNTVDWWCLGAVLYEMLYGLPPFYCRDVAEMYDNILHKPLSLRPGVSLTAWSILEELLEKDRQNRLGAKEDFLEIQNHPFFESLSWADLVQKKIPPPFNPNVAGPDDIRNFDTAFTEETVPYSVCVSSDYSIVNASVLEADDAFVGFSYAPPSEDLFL
Chain of Proto-oncogene tyrosine-protein kinase receptor Ret (Homo sapiens), P07949 [V804L] (P07949 whole entry V804L, the tested form may be a part): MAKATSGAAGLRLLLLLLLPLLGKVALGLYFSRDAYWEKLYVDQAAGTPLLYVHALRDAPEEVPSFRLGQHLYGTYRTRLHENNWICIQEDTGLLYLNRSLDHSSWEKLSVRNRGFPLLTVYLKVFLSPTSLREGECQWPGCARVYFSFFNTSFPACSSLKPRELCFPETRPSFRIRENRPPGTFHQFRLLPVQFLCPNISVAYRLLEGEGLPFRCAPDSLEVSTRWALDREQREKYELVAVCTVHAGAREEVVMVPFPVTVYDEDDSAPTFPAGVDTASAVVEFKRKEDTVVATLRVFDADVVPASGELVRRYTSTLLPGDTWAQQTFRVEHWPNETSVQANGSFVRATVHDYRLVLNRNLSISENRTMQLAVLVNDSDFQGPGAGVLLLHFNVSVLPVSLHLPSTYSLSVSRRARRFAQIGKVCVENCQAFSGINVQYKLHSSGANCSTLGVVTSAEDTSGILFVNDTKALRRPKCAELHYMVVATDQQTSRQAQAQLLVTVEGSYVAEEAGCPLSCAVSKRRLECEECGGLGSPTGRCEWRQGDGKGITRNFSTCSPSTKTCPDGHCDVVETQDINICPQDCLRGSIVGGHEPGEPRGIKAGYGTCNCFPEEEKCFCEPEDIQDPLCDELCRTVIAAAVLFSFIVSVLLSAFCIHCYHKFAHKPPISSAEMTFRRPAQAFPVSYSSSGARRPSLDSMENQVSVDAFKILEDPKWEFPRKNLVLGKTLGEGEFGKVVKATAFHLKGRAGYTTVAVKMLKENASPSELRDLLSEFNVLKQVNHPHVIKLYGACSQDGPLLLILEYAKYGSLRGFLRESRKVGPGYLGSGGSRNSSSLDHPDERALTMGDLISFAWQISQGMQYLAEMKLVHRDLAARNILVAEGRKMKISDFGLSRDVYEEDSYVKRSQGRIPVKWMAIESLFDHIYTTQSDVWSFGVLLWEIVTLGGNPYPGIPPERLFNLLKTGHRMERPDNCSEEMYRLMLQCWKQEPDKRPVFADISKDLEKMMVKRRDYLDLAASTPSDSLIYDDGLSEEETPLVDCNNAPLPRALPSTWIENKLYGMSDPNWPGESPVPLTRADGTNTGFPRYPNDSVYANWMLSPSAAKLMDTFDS
Chain of AP2-associated protein kinase 1 (Homo sapiens) (Q2M2I8 whole entry, looked up, the tested form may be a part): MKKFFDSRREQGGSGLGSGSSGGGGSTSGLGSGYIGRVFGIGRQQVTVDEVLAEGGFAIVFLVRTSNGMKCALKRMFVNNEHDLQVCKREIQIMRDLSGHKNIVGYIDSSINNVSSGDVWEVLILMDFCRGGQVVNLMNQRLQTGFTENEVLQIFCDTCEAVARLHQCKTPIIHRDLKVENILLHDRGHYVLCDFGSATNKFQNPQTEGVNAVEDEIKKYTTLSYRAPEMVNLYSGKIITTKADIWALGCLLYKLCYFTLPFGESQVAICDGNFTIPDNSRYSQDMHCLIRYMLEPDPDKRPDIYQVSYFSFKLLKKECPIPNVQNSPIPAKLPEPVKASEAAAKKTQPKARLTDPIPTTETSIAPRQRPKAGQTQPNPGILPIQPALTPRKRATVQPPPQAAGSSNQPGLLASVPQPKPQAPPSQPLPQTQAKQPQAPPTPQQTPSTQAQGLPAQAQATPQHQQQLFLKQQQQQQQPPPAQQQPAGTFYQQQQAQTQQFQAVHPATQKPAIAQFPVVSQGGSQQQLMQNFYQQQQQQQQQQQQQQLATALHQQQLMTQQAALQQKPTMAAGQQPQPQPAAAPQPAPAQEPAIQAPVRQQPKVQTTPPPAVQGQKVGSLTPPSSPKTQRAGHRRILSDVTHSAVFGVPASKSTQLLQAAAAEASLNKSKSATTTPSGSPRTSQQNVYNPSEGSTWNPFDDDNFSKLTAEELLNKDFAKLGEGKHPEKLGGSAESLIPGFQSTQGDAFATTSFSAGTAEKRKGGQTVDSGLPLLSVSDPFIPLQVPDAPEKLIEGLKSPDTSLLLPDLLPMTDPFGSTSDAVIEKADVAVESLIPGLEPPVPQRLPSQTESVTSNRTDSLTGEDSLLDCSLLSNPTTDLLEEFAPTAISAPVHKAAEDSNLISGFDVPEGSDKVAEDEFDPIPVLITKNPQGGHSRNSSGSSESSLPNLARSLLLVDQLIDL
Chain of Death-associated protein kinase 2 (Homo sapiens) (Q9UIK4 whole entry, looked up, the tested form may be a part): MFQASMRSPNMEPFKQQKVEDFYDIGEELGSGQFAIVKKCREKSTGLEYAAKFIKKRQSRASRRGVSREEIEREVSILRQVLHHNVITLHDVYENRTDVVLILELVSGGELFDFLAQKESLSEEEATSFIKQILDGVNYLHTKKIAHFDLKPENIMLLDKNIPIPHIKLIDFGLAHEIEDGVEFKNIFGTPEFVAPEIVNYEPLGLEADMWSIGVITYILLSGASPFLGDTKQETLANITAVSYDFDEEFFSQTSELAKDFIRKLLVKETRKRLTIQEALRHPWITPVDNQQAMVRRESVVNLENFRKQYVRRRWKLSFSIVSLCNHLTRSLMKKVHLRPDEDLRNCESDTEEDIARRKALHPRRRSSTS
Chain of Phosphatidylinositol 4,5-bisphosphate 3-kinase catalytic subunit alpha isoform (Homo sapiens), P42336 [Q546K] (P42336 whole entry Q546K, the tested form may be a part, canonical isoform): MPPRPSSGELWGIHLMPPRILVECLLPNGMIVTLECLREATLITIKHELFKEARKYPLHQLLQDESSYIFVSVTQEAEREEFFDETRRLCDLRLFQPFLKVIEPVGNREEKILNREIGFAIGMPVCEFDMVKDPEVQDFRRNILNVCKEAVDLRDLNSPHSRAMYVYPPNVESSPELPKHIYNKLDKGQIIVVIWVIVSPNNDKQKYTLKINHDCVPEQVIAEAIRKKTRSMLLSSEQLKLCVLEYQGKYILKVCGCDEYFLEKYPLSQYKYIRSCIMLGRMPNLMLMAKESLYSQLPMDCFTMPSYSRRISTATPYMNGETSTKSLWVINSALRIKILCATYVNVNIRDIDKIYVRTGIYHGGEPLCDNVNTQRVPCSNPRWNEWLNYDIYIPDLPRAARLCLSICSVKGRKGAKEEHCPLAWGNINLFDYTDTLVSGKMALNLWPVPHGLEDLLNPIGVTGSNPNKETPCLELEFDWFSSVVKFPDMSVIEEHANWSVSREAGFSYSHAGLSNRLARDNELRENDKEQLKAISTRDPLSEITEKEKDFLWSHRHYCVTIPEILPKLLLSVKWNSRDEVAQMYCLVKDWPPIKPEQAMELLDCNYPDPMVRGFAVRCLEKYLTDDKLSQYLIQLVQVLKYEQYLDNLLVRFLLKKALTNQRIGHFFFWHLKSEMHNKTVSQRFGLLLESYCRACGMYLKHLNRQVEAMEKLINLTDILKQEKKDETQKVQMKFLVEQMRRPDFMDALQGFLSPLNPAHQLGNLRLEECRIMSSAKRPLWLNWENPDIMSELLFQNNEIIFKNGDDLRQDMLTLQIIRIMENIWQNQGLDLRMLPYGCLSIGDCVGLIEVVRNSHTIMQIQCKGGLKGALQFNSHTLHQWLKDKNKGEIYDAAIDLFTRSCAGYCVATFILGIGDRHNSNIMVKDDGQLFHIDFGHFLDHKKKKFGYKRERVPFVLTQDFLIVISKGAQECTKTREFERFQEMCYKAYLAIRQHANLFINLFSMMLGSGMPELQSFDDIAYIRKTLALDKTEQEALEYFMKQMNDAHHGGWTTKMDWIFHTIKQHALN

Consider `CC(C)Nc1sc(C(=O)c2ccc(Cl)s2)c(N)c1C#N`, for which the Activity in [1] worked out at 100%; in assay [2], 68%; in [3], 56%; in assay [4], 78%; in assay [5] it was 100%; in [6], 80%. The Activity in [7] was determined as 66%; in assay [8], 93%; in [9] it was 100%; in assay [10] it was 100%; in assay [11], 100%; in assay [12] it was 66%. The Activity in assay [13] was determined as 78%; in [14], 76%; in assay [15] it was 94%; in [16] it was 91%; in assay [17], 100%; in [18] it was 16%. Also, the Activity was 95% in [19]; 98% in [20]; 97% in assay [21]; 100% in [22]; 71% in [23]; 37% in [24].
